Key:
[1] = Phospholipidosis assay (LipidTox); format: cell-based; conditions: human
Protocol: (§1) More recently, fluorescent dyes have been utilized to assess phospholipidosis in a high throughput manner (Nioi et al., 2007, Toxicol. Sci. 99:162-173). In this assay, HepG2 cells are plated in MEM growth medium and allowed to incubate overnight. Cells are treated with test compounds that have been added to the assay medium (10% fetal bovine serum) containing LipidTox (fluorescent lipophilic dye). After 48 h incubation, cells are fixed and stained with Hoechst. Plates are scanned with an automated fluorescent microscope (Thermo Fisher Cellomics ArrayScan 4.5) and image analysis is used to quantitate cell number and phospholipid accumulation. Compounds are tested in triplicate at multiple concentrations. Three reference compounds, sertraline, perhexyline, and meclizine (high, medium, and low inducers of phospholipidosis, respectively) are included in each assay. The data is expressed as fold induction over background and the % of the positive control (sertraline), which is calculated using the following equation:
(§2) % positive control=100×(RFUcompound−RFUbackground)/(RFUsertaline−RFUbackground),
(§3) where RFU=Relative Fluorescence Unit

[2] = system: HepG2 cells; assay: Phospholipidosis assay (LipidTox); format: cell-based; conditions: human, 48 h
Protocol: as §1, §2, §3

[3] = system: Aspergillus fumigatus-based mouse asthma model; assay: Aspergillus fumigatus-based mouse asthma model, lung resistance; format: in vivo; conditions: 20 mg/ml, intraperitoneally
Protocol: Compounds of the invention were also tested for efficiacy in an asthma model.
A cohort of mice was administered intraperitoneal injections of Aspergillus fumigatus on days 0, 14, 26, 27, and 28. Lung resistance was tested on day 29 immediately following a tracheotomy/methacholine procedure. Animals receiving dexamethasone were administered dexamethasone on days 26, 27 and 28. Animals receiving a compound of the invention were administered the compound just hours before the lung resistance test. As a control, all test compounds, as well as dexamethasone, were also administered to mice in the absence of an A. fumigatus insult.

[4] = system: Serotonin (5-Hydroxytryptamine) 5-HT1, Non-Selective; assay: Assay 271000 radioligand binding, 5-HT1 non-selective; design: species or system Wistar Rat
Protocol: The methods employed in this study have been adapted from the scientific literature to maximize reliability and reproducibility. Reference standards were run as an integral part of each assay to ensure the validity of the results obtained. Assays were performed under conditions as described below. Where presented, IC50 values were determined by a non-linear, least squares regression analysis using the Data Analysis Toolbox (MDL Information Systems, San Leandro, Calif., USA). Where inhibition constants (Ki) are presented, the Ki values were calculated using the equation of Cheng and Prusoff (Cheng, Y., Prusoff, W. H., Biochem. Pharmacol. 22:3099-3108, 1973) using the observed IC50 of the tested compound, the concentration of radioligand employed in the assay, and historical values for the KD of the ligand. Where presented, the Hill coefficient (nu), defining the slope of the competitive binding curve, was calculated using the Data Analysis Toolbox.

[5] = system: Monocrotaline model of pulmonary arterial hypertension; assay: Monocrotaline model of pulmonary arterial hypertension (PAH); format: in vivo, Sprague-Dawley rats
Protocol: Adult male Sprague-Dawley rats (287±4 g) were obtained from Charles River Laboratories (Raleigh, N.C.). Animals housed individually in a temperature/humidity controlled room with 12-hour light/dark cycles had free access to water and food and were acclimated for one week prior to the study. All experimental protocols were approved by the University of Illinois at Chicago Care and Use Committee, and all experiments were conducted in accordance with the NIH guidelines for animal welfare.
Rats were randomly assigned to one of five experimental groups (n=10 per group). Rats in groups 1 and 2 served as healthy controls; the remaining rats were injected subcutaneously on Day 0 with 60 mg/kg body weight monocrotaline, the toxic alkaloid of C. spectabilis (dissolved in DMSO at a concentration of 60 mg/mL, Sigma Aldrich, St. Louis, Mo.). On days 1-21, rats were dosed via oral gavage (2 mL/kg) with vehicle (PBS), or ICI-735 at 1 mg/kg or 10 mg/kg. Rats were weighed daily, and the dosages were adjusted appropriately. […]
After the lungs were harvested, they were instilled with 10% neutral buffered formalin and immersed in the same fixative. The left and right caudal lung lobes were trimmed to produce six transverse samples per rat and these samples were routinely processed and embedded in paraffin blocks. Sections (approximately 5 μm thick) were stained with Verhoeff's elastin/eosin stain and examined by light microscopy, Histopathological findings were classified as: 1-alveolar inflammation and septal remodeling, 2-perivascular inflammation and edema, 3-perivascular fibrosis, and 4-arteriolar medial hypertrophy. The findings were graded by a pathologist without knowledge of treatment group assignment as 0 (not present), 1 (minimal), 2 (mild), 3 (moderate), or 4 (marked).
The distribution of each finding, if present was classified as multifocal or diffuse. The degree of muscularization of small peripheral pulmonary arteries was assessed by examination of sections immunohistochemically reacted with an anti-alpha-smooth muscle actin antibody (rabbit polyclonal ab5694 diluted 1:100, Abeam, Cambridge, Mass.). […]

[6] = MCT + 1 mg/kg ICI-735, 21 days, n = 10
[7] = MCT + 10 mg/kg ICI-735, 21 days, n = 10
[8] = MCT rats, daily oral 10 mg/kg for 21 days, p<0.05
[9] = SI + 10 mg/kg ICI-735, 21 days, n = 10

## NCC(=O)NCCN1CCN(CCCN2c3ccccc3Sc3ccc(C(F)(F)F)cc32)CC1 [ICI-735]
[1]
  cytotoxicity at 48 h, 1 µM: 0%
  cytotoxicity at 48 h, 3 µM: 68%
  cytotoxicity at 48 h, 10 µM: 100%
  cytotoxicity at 48 h, 30 µM: 100%
  fold induction at 48 h, 1 µM: 23
  fold induction at 48 h, 3 µM: 6
[2]; 1 μM
  % Positive Control: 43%
[2]; 3 μM
  % Positive Control: 10%
[3]; A. fumigatus insult, day 29
  Lung resistance: 8.5 cm H2O/ml/s
[3]
  decreasing lung resistance compared with dexamethasone: at least as effective as dexamethasone
[4]; 0.1 μM
  % INHIBITION: 16%
[4]; 10 μM
  % INHIBITION: 63%
[5]; 1 or 10 mg/kg oral, 21 days
  physical or behavioral drug-related toxicity, daily clinical evaluation: no evidence
[5]; [6]
  Incidence: Alveolar inflammation/septal remodeling, severity score 1: 3
  Incidence: Alveolar inflammation/septal remodeling, severity score 2: 4
  Incidence: Alveolar inflammation/septal remodeling, severity score 3: 1
  Incidence: Alveolar inflammation/septal remodeling, severity score 4: 2
  Incidence: Arteriolar medial hypertrophy, severity score 1: 1
  Incidence: Arteriolar medial hypertrophy, severity score 2: 6
  Incidence: Arteriolar medial hypertrophy, severity score 3: 3
  Incidence: Perivascular flbrosis, severity score 0: 2
  Incidence: Perivascular flbrosis, severity score 1: 5
  Incidence: Perivascular flbrosis, severity score 2: 3
  Incidence: Perivascular inflammation/edema, severity score 1: 4
  Incidence: Perivascular inflammation/edema, severity score 2: 5
  Incidence: Perivascular inflammation/edema, severity score 3: 1
[5]; [7]
  Incidence: Alveolar inflammation/septal remodeling, severity score 1: 6
  Incidence: Alveolar inflammation/septal remodeling, severity score 2: 3
  Incidence: Alveolar inflammation/septal remodeling, severity score 3: 1
  Incidence: Arteriolar medial hypertrophy, severity score 0: 3
  Incidence: Arteriolar medial hypertrophy, severity score 1: 5
  Incidence: Arteriolar medial hypertrophy, severity score 2: 2
  Incidence: Perivascular flbrosis, severity score 0: 7
  Incidence: Perivascular flbrosis, severity score 1: 3
  Incidence: Perivascular inflammation/edema, severity score 1: 8
  Incidence: Perivascular inflammation/edema, severity score 2: 2
[5]; MCT rats, 1 mg/kg
  effects of MCT on PAP, RVSP and RV/BW: did not attenuate
[5]; MCT rats, 10 mg/kg
  incidences and severities of perivascular fibrosis and arteriolar medial hypertrophy: marked decrease
[5]; MCT rats, 10 mg/kg, compared to MCT/vehicle
  severities of alveolar inflammation and septal remodeling, and perivascular inflammation and edema: clearly diminished
[5]; [8]
  reduction of MCT-induced elevation of PAP: 75%
  reduction of MCT-induced elevation of RV/BW: 81%
  reduction of MCT-induced elevation of RVSP: 78%
[5]; MCT rats, high-dose
  degree of muscularization of pulmonary arterioles compared with SI/vehicle controls: no significant differences
[5]; [9]
  Incidence: Alveolar inflammation/septal remodeling, severity score 0: 1
  Incidence: Alveolar inflammation/septal remodeling, severity score 1: 9
  Incidence: Arteriolar medial hypertrophy, severity score 0: 10
  Incidence: Perivascular flbrosis, severity score 0: 10
  Incidence: Perivascular inflammation/edema, severity score 0: 4
  Incidence: Perivascular inflammation/edema, severity score 1: 5
  Incidence: Perivascular inflammation/edema, severity score 2: 1
[5]; SI rats, 10 mg/kg
  changes in PAP, RVSP or RV/BW compared with vehicle controls: no changes
[5]; all ICI-735-treated groups
  Mean arterial pressure (MAP) compared with controls: unmodified
  heart rate (HR) compared with controls: unmodified

From patent publication US20120035161A1, “Novel Compositions and Methods of Treating Diseases Using the Same” (CORRIDOR PHARMACEUTICALS, INC., priority 2006, published 2012)
